Measurements reported in patent publication US10385024B2, “Compounds and methods for inhibiting NHE-mediated antiport in the treatment of disorders associated with fluid retention or salt overload and gastrointestinal tract disorders” (Ardelyx, Inc., priority 2012, dated 2019).
Blank lines part the entries; values can stand above or below the molecule they belong to.

Tests used:
[1] = human absorption data, from Ertl et al., J. Med. Chem., 2000; cited from earlier work
Rat NHE-3 [2] = biological target: T1, Rat NHE-3 (Rattus norvegicus, UniProt P26433); assay: Cell-based assay of NHE-3 activity (persistent inhibition, after washout); conditions: OK cells with rat NHE-3 gene, 60 min incubation, recovery initiated 40 min after compound washout
T1 construct: expressed in transfected cells; host or cells: Opossum kidney (OK) cells (ATCC), transfected by electroporation
In short: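 OK cells transiently expressing rat NHE-3 were exposed to 0-30 μM compound in NaCl-HEPES pH 7.4 for 60 min, then washed free of drug before NH4Cl/BCECF-AM loading and acid-loading in Na+-free choline buffer. Na+-dependent pH recovery rates (mean of ≥2 replicates) gave pIC50.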

human NHE-3 = biological target: T2, human NHE-3 (Homo sapiens, UniProt P48764); assay: Cell-based assay of NHE-3 activity (human NHE3 inhibition assay); conditions: OK cells with human NHE-3 gene, BCECF pH dye, 0-30 μM test compound
T2 construct: expressed in transfected cells; host or cells: Opossum kidney (OK) cells (ATCC), transfected by electroporation
T2 sequence (P48764 26-834): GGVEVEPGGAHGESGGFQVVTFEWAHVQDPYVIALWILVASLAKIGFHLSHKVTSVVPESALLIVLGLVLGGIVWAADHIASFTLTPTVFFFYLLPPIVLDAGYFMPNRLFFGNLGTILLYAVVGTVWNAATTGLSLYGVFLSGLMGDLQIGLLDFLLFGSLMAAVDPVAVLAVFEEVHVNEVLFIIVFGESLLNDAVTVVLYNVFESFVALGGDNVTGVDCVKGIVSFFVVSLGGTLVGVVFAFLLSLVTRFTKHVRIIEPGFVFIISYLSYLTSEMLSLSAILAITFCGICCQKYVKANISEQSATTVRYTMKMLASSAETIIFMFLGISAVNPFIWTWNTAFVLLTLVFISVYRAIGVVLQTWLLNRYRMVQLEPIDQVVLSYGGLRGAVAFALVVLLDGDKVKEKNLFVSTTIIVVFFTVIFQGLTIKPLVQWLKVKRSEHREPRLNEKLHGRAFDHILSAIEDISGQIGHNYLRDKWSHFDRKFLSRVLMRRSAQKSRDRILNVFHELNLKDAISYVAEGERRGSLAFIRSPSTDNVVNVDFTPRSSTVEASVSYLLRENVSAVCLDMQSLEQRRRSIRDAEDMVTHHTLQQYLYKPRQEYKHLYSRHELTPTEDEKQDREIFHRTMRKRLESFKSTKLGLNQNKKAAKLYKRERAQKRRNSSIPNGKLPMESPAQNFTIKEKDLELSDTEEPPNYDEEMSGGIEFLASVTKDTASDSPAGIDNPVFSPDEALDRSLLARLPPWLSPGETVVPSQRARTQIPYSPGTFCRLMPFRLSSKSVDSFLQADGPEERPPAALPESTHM
In short: (§1)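 Opossum kidney cells electroporated with rat or human NHE-3, loaded with 5 μM BCECF-AM in NH4Cl-HEPES pH 7.4 for 30 min at RT, then acidified 10 min in Na+-free choline HEPES. Na+-dependent pH recovery rates from BCECF fluorescence, averaged over ≥2 replicates, gave pIC50.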

[3] = test system: absorption of sodium from the intestinal lumen; assay: Inhibition of intestinal sodium absorption (urinary sodium and fecal form); format: in vivo, Sprague-Dawley rats; conditions: rat, 3 mg/kg oral gavage, urine 16 h post-dose; asterisks = significance vs vehicle (*P<0.05, **P<0.01, ***P<0.001); read-out: uNa (% of vehicle)
In short: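 Sprague-Dawley rats (8 weeks, n=6) dosed by oral gavage with compound or water vehicle (10 mL/kg) in late afternoon, then housed in metabolic cages. Over 16 h, urinary sodium measured by ion chromatography and expressed as % of vehicle mean; fecal form scored 1–5, averaged from two observations.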

Rat NHE-3 [4] = biological target: T1, Rat NHE-3; assay: Cell-based assay of NHE-3 activity (rat NHE-3 prompt inhibition); conditions: OK cells with rat NHE-3 gene, compound present during pH recovery
In short: as §1

T1 sequence (P26433 29-831): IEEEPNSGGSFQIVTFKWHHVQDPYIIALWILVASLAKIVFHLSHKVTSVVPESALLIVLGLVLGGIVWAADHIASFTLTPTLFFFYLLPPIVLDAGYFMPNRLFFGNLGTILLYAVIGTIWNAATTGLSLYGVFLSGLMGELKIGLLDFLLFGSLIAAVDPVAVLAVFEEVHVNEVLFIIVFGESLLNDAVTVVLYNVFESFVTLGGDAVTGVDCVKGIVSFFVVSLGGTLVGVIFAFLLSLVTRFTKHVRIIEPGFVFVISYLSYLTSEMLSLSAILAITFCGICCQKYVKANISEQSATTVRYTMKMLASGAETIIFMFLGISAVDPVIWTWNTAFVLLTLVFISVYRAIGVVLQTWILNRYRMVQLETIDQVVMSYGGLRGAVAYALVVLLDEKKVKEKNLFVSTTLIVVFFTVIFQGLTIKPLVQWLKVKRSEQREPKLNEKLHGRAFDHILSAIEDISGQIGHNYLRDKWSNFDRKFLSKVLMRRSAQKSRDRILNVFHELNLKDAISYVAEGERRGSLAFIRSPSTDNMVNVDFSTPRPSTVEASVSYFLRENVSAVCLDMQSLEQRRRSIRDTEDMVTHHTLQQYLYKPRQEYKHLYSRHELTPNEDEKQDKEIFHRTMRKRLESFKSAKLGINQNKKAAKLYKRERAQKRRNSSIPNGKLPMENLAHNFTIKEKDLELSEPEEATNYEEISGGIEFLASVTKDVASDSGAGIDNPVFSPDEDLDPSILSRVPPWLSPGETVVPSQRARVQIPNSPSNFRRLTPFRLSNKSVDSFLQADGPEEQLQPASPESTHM

SMILES: NC[C@H]1CC[C@H](C(=O)O)CC1 [tranexamic acid]
% FA [1]: 55%

SMILES: O=C(O)c1cc(/N=N/c2ccc(S(=O)(=O)Nc3ccccn3)cc2)ccc1O [sulfasalazine]
% FA [1]: 12%

SMILES: C=CCc1ccccc1OCC(O)CNC(C)C (centres unmarked) [alprenolol]
% FA [1]: 96%

SMILES: CCN1CCCC1CNC(=O)c1cc(S(N)(=O)=O)ccc1OC (centres unmarked) [sulpiride]
% FA [1]: 36%

SMILES: OC[C@@H](O)[C@@H](O)[C@H](O)[C@H](O)CO [mannitol]
% FA [1]: 26%

SMILES: Cc1ccccc1N1C(=O)c2cc(S(N)(=O)=O)c(Cl)cc2NC1C (centres unmarked) [metolazone]
% FA [1]: 64%

SMILES: CC(=O)Nc1ccc(OCC(O)CNC(C)C)cc1 (centres unmarked) [practolol]
% FA [1]: 95%

SMILES: O=C(O)c1cc(/N=N/c2ccc(O)c(C(=O)O)c2)ccc1O [olsalazine]
% FA [1]: 2.3%

SMILES: CC(C)NCC(O)COc1cccc2[nH]ccc12 (centres unmarked) [pindolol]
% FA [1]: 92%

SMILES: O=C(O)P(=O)(O)O [foscarnet]
% FA [1]: 17%

SMILES: C=CCOc1ccccc1OCC(O)CNC(C)C (centres unmarked) [oxprenolol]
% FA [1]: 97%

IC50 (Rat NHE-3 [2]; read-out: Rat NHE3 pIC50 (persistent) (converted)): < 100 nM
IC50 (human NHE-3; read-out: Human NHE3 pIC50 (converted)): 100 to 10000 nM
IC50 (Rat NHE-3 [4]; read-out: Rat NHE3 pIC50 (prompt) (converted)): 100 to 10000 nM
SMILES: CC(=O)C(CCC(=O)NCCOCCOCCNS(=O)(=O)c1cccc([C@@H]2CN(C)Cc3c(Cl)cc(Cl)cc32)c1)(CCC(=O)NCCOCCOCCNS(=O)(=O)c1cccc([C@@H]2CN(C)Cc3c(Cl)cc(Cl)cc32)c1)CCC(=O)NCCOCCOCCNS(=O)(=O)c1cccc([C@@H]2CN(C)Cc3c(Cl)cc(Cl)cc32)c1 [Example 72, 4-acetyl-N1,N7-bis(2-(2-(2-(3-((S)-6,8-dichloro-2-methyl-1,2,3,4-tetrahydroisoquinolin-4-yl)phenylsulfonamido)ethoxy)ethoxy)ethyl)-4-(3-(2-(2-(2-(3-((S)-6,8-dichloro-2-methyl-1,2,3,4-tetrahydroisoquinolin-4-yl)phenylsulfonamido)ethoxy)ethoxy)ethylamino)-3-oxopropyl)heptanediamide]
response vs control in vivo at 3 mg/kg [3]: 35 to 75%

SMILES: OC[C@H]1O[C@H](OC[C@H]2O[C@H](O[C@]3(CO)O[C@H](CO)[C@@H](O)[C@@H]3O)[C@H](O)[C@@H](O)[C@@H]2O)[C@H](O)[C@@H](O)[C@H]1O [raffinose]
% FA [1]: 0.3%

Rat NHE3 pIC50 (persistent) (Rat NHE-3 [2]): C (C NHE3 pIC50 > 7)
Human NHE3 pIC50 (human NHE-3): C (C NHE3 pIC50 > 7)
Rat NHE3 pIC50 (prompt) (Rat NHE-3 [4]): B (B NHE3 pIC50 5-7)
SMILES: CN1Cc2c(Cl)cc(Cl)cc2C(c2cccc(S(=O)(=O)NCCOCCOCCNC(=O)CCC(CCC(=O)NCCOCCOCCNS(=O)(=O)c3cccc(C4CN(C)Cc5c(Cl)cc(Cl)cc54)c3)(CCC(=O)NCCOCCOCCNS(=O)(=O)c3cccc(C4CN(C)Cc5c(Cl)cc(Cl)cc54)c3)NC(=O)C3CCCCC3C(=O)O)c2)C1 (centres unmarked) [Example 28]
response vs control in vivo at 3 mg/kg [3]: 35 to 75%

Rat NHE3 pIC50 (persistent) (Rat NHE-3 [2]): C (C NHE3 pIC50 > 7)
Human NHE3 pIC50 (human NHE-3): C (C NHE3 pIC50 > 7)
Rat NHE3 pIC50 (prompt) (Rat NHE-3 [4]): C (C NHE3 pIC50 > 7)
SMILES: CN1Cc2c(Cl)cc(Cl)cc2[C@H](c2cccc(S(=O)(=O)NCCOCCOCCNC(=O)NCCCC(CCCNC(=O)NCCOCCOCCNS(=O)(=O)c3cccc([C@@H]4CN(C)Cc5c(Cl)cc(Cl)cc54)c3)(CCCNC(=O)NCCOCCOCCNS(=O)(=O)c3cccc([C@@H]4CN(C)Cc5c(Cl)cc(Cl)cc54)c3)NC(=O)COCC(=O)O)c2)C1 [Example 64]
response vs control in vivo at 3 mg/kg [3]: 35 to 75%

SMILES: OC[C@H]1O[C@@H](O[C@@H]2[C@@H](CO)OC(O)(CO)[C@H]2O)[C@H](O)[C@@H](O)[C@H]1O (mixture of isomers) [lactulose]
% FA [1]: 0.6%

Rat NHE3 pIC50 (persistent) (Rat NHE-3 [2]): C (C NHE3 pIC50 > 7)
Human NHE3 pIC50 (human NHE-3): C (C NHE3 pIC50 > 7)
Rat NHE3 pIC50 (prompt) (Rat NHE-3 [4]): C (C NHE3 pIC50 > 7)
SMILES: CN1Cc2c(Cl)cc(Cl)cc2[C@H](c2cccc(S(=O)(=O)NCCOCCOCCNC(=O)NCCC(CCNC(=O)NCCOCCOCCNS(=O)(=O)c3cccc([C@@H]4CN(C)Cc5c(Cl)cc(Cl)cc54)c3)(CCNC(=O)NCCOCCOCCNS(=O)(=O)c3cccc([C@@H]4CN(C)Cc5c(Cl)cc(Cl)cc54)c3)NC(=O)COCC(=O)O)c2)C1 [Example 66]
response vs control in vivo at 3 mg/kg [3]: < 35%
